Tests used:
pancreatin = assay: Pancreatin stability; assay type: in vitro ADME, porcine; details: gabapentin (2) released by 1% (w/v) pancreatin; prodrug 5 μM; pH 7.5; 37° C.; 60 min
Method: Pancreatin Stability: Stability studies were conducted by incubating prodrug (5 μM) with 1% (w/v) pancreatin (Sigma, P-1625, from porcine pancreas) in 0.025 M Tris buffer containing 0.5 M NaCl (pH 7.5) at 37° C. for 60 min. The reaction was stopped by addition of 2 volumes of methanol. After centrifugation at 14,000 rpm for 10 min, the supernatant was removed and analyzed by LC/MS/MS.

[1] = Pharmacokinetics of N-phthaloylglycine prodrug (61) in rats (Example 42); assay type: in vivo, rat; details: oral (61) 240 mg/kg, post dosing
Method: The pharmacokinetics of the N-phthaloylglycine prodrug (61) is examined in rats. […] Serial blood samples are obtained over 24 hours following dosing and blood is processed for plasma by centrifugation. Plasma samples are stored at −80° C. until analyzed. Concentrations of N-phthaloylglycine or (61) in plasma samples are determined by LC/MS/MS.

[2] = In vitro enzymatic release in rat liver S9; details: Rat Liver S9 (0.5 mg/mL); substrate 2.0 μM; NADPH; 37° C.
Aminopeptidase 1 = target: T1, Aminopeptidase 1 (Streptomyces griseus subsp. griseus, UniProt P80561); assay: Aminopeptidase stability; assay type: in vitro ADME; details: substrate 5.0 μM, no cofactors, pH 8.0, 37° C.
T1 construct: purchased Sigma A-9934
Method: Aminopeptidase Stability: Aminopeptidase 1 (Sigma catalog # A-9934) was diluted in deionised water to a concentration of 856 units/mL. Stability studies were conducted by incubating prodrug (5 μM) with 0.856 units/mL aminopeptidase 1 in 50 mM Tris-HCl buffer at pH 8.0 and 37° C. Concentrations of intact prodrug and released drug were determined at zero time and 60 minutes using LC/MS/MS.
Concentrations of (2), (4), (7g) or Phe-Gabapentin in tissue extracts were determined by direct injection onto an API 2000 LC/MS/MS equipped with an Agilent 1100 binary pump and autosampler. Separation was achieved using a 3.5 μm Zorbax Ellipse XDB-C8 4.4×150 mm column heated to 45° C. during the analysis. The mobile phases were: 0.1% formic acid in water (A) and 0.1% formic acid in acetonitrile (B). The gradient condition was: 2% B for 0.5 min, increasing to 90% B in 2.0 min, maintained for 2.5 min and returning to 2% B for 2 min. A TurbolonSpray source was used on the API 2000. The analysis was performed in the positive ion mode and MRM transitions of 709.5/172.1 and 172.0/137.2 were used in the analysis of Cholyl-Phe-Gabapentin (7g) and gabapentin (2) respectively. Ten microliters of the sample extracts were injected. Peaks were integrated using Analyst quantitation software. The method was linear for (7g) or (2) over the concentration range 0.01 to 12.5 μg/mL and 0.002 to 2.5 μg/mL respectively.

[3] = In vitro enzymatic release in rat plasma; details: substrate 2.0 μM, no cofactors, 37° C.
[4] = In vitro enzymatic release in human liver S9; details: Human Liver S9 (0.5 mg/mL); substrate 2.0 μM; NADPH; 37° C.
[5] = In vitro enzymatic release in human intestine S9; details: Human Intestine S9 (0.5 mg/mL); substrate 2.0 μM; NADPH; 37° C.
[6] = Caco-2 homogenate S9 stability; assay type: in vitro ADME; details: substrate 5.0 μM, no cofactors, 37° C.
Method: Caco-2 Homogenate S9 Stability. Caco-2 cells were grown for 21 days prior to harvesting. Culture medium was removed and cell monolayers were rinsed and scraped off into ice-cold 10 mM sodium phosphate/0.15 M potassium chloride, pH 7.4. Cells were lysed by sonication at 4° C. using a probe sonicator. Lysed cells were then transferred into 1.5 mL centrifuge vials and centrifuged at 9000 g for 20 min at 4° C. The resulting supernatant (Caco-2 cell homogenate S9 fraction) was aliquoted into 0.5 mL vials and stored at −80° C. until used.
For stability studies, prodrug (5 μM) was incubated in Caco-2 homogenate S9 fraction (0.5 mg protein per mL) for 60 min at 37° C. Concentrations of intact prodrug and released drug were determined at zero time and 60 minutes using LC/MS/MS.
Concentrations of (2), (4), (7g) or Phe-Gabapentin in tissue extracts were determined by direct injection onto an API 2000 LC/MS/MS equipped with an Agilent 1100 binary pump and autosampler. Separation was achieved using a 3.5 μm Zorbax Ellipse XDB-C8 4.4×150 mm column heated to 45° C. during the analysis. The mobile phases were: 0.1% formic acid in water (A) and 0.1% formic acid in acetonitrile (B). The gradient condition was: 2% B for 0.5 min, increasing to 90% B in 2.0 min, maintained for 2.5 min and returning to 2% B for 2 min. […] Peaks were integrated using Analyst quantitation software. […]

LBAT = target: T2, LBAT (Homo sapiens, UniProt Q14973); assay: Inhibition of radiolabeled taurocholate uptake in LBAT-transfected CHO cells; assay type: cell-based; details: radiolabeled competition assay in transporter-expressing CHO cells
T2 construct: expressed in transfected cells; host or cells: CHO cells
Method: (§1) CHO cells transfected with either the IBAT or LBAT transporter were seeded into 96-well microtiter plates at 100,000 cells/well in 100 μL DMEM containing 10% serum, glutamine and Penstrep. After overnight incubation the media was removed and test compound (25 μL) added at 2× the final desired concentration. Tritiated taurocholate (50,000 CPM/well) was diluted with cold substrate to a final concentration of 5 μM and 25 μL/well of this mixture was added to the plate. After incubating for 1 h at room temperature the solution was removed and the plate washed 4× with PBS at 4° C. 200 μL/well of scintillant is added and the plate then read in a Wallac microbeta counter. The inhibition data is processed by standard methods to calculate an inhibition constant Ki for the test compound.

[7] = In vitro enzymatic release in human plasma; details: substrate 2.0 μM, no cofactors, 37° C.
IBAT [8] = target: T3, IBAT (Homo sapiens, UniProt Q12908); assay: Inhibition of radiolabeled taurocholate uptake in IBAT-transfected CHO cells; assay type: cell-based; parameters: expressed in transfected cells; host or cells: CHO cells; details: radiolabeled competition assay in transporter-expressing CHO cells
Method: as §1

IBAT [9] = target: T3, IBAT; assay: Electrogenic transport in Xenopus oocytes expressing IBAT; assay type: cell-based; details: relative to glycodeoxycholate
Text: RNA preparation: Human IBAT and LBAT Transporter cDNAs were subcloned into a modified pGEM plasmid that contains 5′ and 3′ untranslated sequences from the Xenopus β-actin gene. These sequences increase RNA stability and protein expression. Plasmid cDNA was linearized and used as template for in vitro transcription (Epicentre Technologies transcription kit, 4:1 methylated:non-methylated GTP).
Xenopus oocyte isolation. Xenopus laevis frogs were anesthetized by immersion in Tricaine ([…] in deionized water) for 15 min. Oocytes were removed and digested in frog ringer solution (90 mM NaCl, 2 mM KCl, 1 mM MgCl2, 10 mM NaHEPES, pH 7.45, no CaCl2) with 1 mg/mL collagenase (Worthington Type 3) for 80-100 min with shaking. The oocytes were washed 6 times, and the buffer changed to frog ringer solution containing CaCl2 (1.8 mM). Remaining follicle cells were removed if necessary. Cells were incubated at 16° C., and each oocyte injected with […] RNA in […] solution.
Electrophysiology measurements. Transport currents were measured 2-14 days after injection, using a standard two-electrode electrophysiology set-up (Geneclamp 500 amplifier, Digidata 1320/PCLAMP software and ADInstruments hardware and software were used for signal acquisition). Electrodes ([…]) were microfabricated using a Sutter Instrument puller and filled with 3M KCl. The bath was directly grounded (transporter currents were less than 0.3 μA). Bath flow was controlled by an automated perfusion system (ALA Scientific Instruments, solenoid valves).
For transporter pharmacology, oocytes were clamped at −60 to −90 mV, and continuous current measurements acquired using PowerLab Software and an ADInstruments digitizer. Current signals were lowpass filtered at 20 Hz and acquired at 4-8 Hz. All bath and drug-containing solutions were frog ringers solution containing CaCl2. Drugs were applied for 10-30 seconds until the induced current reached a new steady-state level, followed by a control solution until baseline currents returned to levels that preceded drug application. The difference current (baseline subtracted from peak current during drug application) reflected the net movement of charge resulting from electrogenic transport and was directly proportional to tranport rate. Recordings were made from a single oocyte for up to 60 min, enabling 30-40 separate compounds to be tested per oocyte. […]. Using this normalization procedure Vmax (i.e. maximal induced current) for different compounds tested on different oocytes could be compared.

T3 sequence (Q12908 whole entry): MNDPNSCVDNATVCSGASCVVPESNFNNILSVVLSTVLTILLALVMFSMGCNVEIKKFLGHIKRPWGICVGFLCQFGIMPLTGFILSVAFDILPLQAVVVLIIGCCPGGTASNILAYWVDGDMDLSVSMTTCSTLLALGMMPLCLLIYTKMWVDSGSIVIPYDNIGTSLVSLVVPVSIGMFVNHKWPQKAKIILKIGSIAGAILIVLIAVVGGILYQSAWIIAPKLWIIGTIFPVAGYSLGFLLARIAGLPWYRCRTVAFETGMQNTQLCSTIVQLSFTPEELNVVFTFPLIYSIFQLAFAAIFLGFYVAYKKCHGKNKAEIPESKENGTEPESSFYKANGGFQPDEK
T1 sequence (P80561 46-329): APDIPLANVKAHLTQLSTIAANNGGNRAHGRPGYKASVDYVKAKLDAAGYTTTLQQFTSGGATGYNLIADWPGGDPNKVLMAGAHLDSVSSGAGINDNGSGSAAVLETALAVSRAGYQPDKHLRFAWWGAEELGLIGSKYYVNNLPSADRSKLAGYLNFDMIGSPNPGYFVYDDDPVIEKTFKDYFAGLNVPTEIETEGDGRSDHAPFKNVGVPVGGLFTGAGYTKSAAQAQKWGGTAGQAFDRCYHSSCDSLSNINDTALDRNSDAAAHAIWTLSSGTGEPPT
T2 sequence (Q14973 whole entry): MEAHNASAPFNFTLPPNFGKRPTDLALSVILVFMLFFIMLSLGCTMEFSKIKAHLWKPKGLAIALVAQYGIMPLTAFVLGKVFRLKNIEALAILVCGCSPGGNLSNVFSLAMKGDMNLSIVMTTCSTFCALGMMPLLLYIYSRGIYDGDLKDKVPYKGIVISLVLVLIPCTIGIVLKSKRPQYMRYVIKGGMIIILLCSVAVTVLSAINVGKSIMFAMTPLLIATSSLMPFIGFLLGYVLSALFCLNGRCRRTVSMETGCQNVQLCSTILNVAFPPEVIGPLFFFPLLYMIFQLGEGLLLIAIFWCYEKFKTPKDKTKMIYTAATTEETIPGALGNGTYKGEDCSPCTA

## CC(CCC(=O)NC(Cc1ccc(O)cc1)C(=O)NCC1(CC(=O)O)CCCCC1)C1CCC2C3C(O)CC4CC(O)CCC4(C)C3CC(O)C12C (stereo not shown) [(7h), Cholyl-Tyr-Gabapentin]
pancreatin
  % (2) Released: 40%

## N[C@@H](CCC(=O)O)C(=O)N[C@@H](CSC(=O)CN1C(=O)c2ccccc2C1=O)C(=O)NCC(=O)O [Compound (61), H-Glu-Cys(N-phthaloylglycyl)-Gly-OH]
[1]
  time at which liberated N-phthaloylglycine is apparent in plasma: ≤ 30 min

## NC(Cc1ccccc1)C(=O)NCC1(CC(=O)O)CCCCC1 (stereo not shown) [Phe-Gabapentin]
[2]
  Percent of Gabapentin Released in 60 min: 1%
Aminopeptidase 1
  Percent of Gabapentin Released in 60 min: 24%
[3]
  Percent of Gabapentin Released in 60 min: 19%
[4]
  Percent of Gabapentin Released in 60 min: 1%
[5]
  Percent of Gabapentin Released in 60 min: 5%
[6]
  Percent of Gabapentin Released in 60 min: 21%

## Cholyl-Dopa-(4-pivaloyloxymethyl) [(21)]
[2]
  Percent of (20) Released in 60 min: 35%
LBAT
  IC50: 0.2 µM
[3]
  Percent of (20) Released in 60 min: 75%
[7]
  Percent of (20) Released in 60 min: 90%
[4]
  Percent of (20) Released in 60 min: 70%
IBAT [8]
  IC50: 91 µM
[5]
  Percent of (20) Released in 60 min: 95%
IBAT [9]
  % Max. (GDC): 104%

From patent US20050054559A1, “Compounds for sustained release of orally delivered drugs” (priority 2000, published 2005)
